≈ marks a conversion by molar mass, not a printed value. Where two headings read alike, the source gives them in different places.
Experiments:
[1] = system: Staphylococcus aureus 101; test: MIC against Staphylococcus aureus 101; assay type: cell-based; conditions: Staphylococcus aureus 101, MRSA- and trimethoprim-resistant, clinical isolate; for MIC: read-out: MIC Sa101
[2] = target: T1, purified DHFR of strain Sp1/1 of Streptococcus pneumoniae (Streptococcus pneumoniae serotype 4, UniProt Q54801); assay type: biochemical; conditions: IC50 against purified DHFR of strain Sp1/1
T1 sequence (Q54801 1-168 I100L): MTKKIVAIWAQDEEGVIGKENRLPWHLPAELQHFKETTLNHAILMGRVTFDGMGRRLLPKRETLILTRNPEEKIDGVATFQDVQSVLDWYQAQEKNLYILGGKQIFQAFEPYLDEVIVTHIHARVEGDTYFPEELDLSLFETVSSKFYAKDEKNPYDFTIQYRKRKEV

[3] = system: Streptococcus pneumoniae 1/1; test: MIC against Streptococcus pneumoniae 1/1; assay type: cell-based; conditions: Streptococcus pneumoniae 1/1, trimethoprim- and penicillin-resistant, serotype 6, clinical isolate; for MIC: read-out: MIC Sp1/1
[4] = target: purified DHFR of strain 157/4696 of Staphylococcus aureus (Staphylococcus aureus, UniProt P13955); test: biochemical
Sequence of purified DHFR of strain 157/4696 of Staphylococcus aureus (P13955 whole entry): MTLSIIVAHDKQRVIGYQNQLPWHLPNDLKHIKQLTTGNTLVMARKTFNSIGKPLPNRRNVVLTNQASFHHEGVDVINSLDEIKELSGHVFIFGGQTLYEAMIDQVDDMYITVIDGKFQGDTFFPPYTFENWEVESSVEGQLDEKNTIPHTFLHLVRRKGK

Row | Molecule | MIC ([1]; Table 2) [µg/mL] | IC50 ([2]; Table 2) [nM] | MIC ([3]; Table 2) [µg/mL] | IC50 [4] [nM] | MIC ([1]; Table 1) [µg/mL] | IC50 ([2]; Table 1) [nM] | MIC ([3]; Table 1) [µg/mL] | MIC Sa101 ([1]; Table 2) [µg/mL] | MIC Sp1/1 ([3]; Table 2) [µg/mL] | IC50 ([4]; Table 2, IC50 against purified DHFR of strain 157/4696 (highly trimethoprim-resistant; clinical isolate), read-out: DHFR Sa1) [nM]
1 | CCOc1cc(Cc2cnc(N)nc2N)cc(OCC)c1-c1ccc(OS(C)(=O)=O)cc1 [Example 45-, Methanesulphonic acid 4′-(2,4-diamino-pyrimidin-5-ylmethyl)-2′,6′-diethoxy-biphenyl-4-yl ester] | 8 (≈ 17.4 µM) | 130 | 4 (≈ 8.72 µM) | 2400 |  |  |  |  |  | 
2 | CCOc1cc(Cc2cnc(N)nc2N)cc(OS(=O)(=O)C(C)C)c1-c1ccc(OC)c(N)c1 [Example 33-a, Propane-2-sulphonic acid 3′-amino-4-(2,4-diamino-pyrimidin-5-ylmethyl)-6-ethoxy-4′-methoxy-4-ylmethyl-biphenyl-2-yl ester] | 1 (≈ 2.05 µM) | 12 | 1 (≈ 2.05 µM) | 65 |  |  |  |  |  | 
3 | CCOc1cc(Cc2cnc(N)nc2N)cc(OCC2(CC#N)CC2)c1-c1ccc(O)cc1 [Example 08-c, {1-[4-(2,4-Diamino-pyrimidin-5-ylmethyl)-6-ethoxy-4′-hydroxy-biphenyl-2-yloxymethyl]-cyclopropyl}-acetonitrile] | 8 (≈ 18 µM) | 24 | 4 (≈ 8.98 µM) | 1600 |  |  |  |  |  | 
4 | CCOc1cc(Cc2cnc(N)nc2N)cc(OS(=O)(=O)N(CC)CC)c1-c1ccc(NC)cc1 [Example 26-f, Diethylsulphamic acid 4-(2,4-diamino-pyrimidin-5-ylmethyl)-6-ethoxy-4′-methylamino-biphenyl-2-yl ester] | 2 (≈ 4 µM) | 8.8 | 1 (≈ 2 µM) | 230 |  |  |  |  |  | 
5 | CCCS(=O)(=O)Oc1cc(Cc2cnc(N)nc2N)cc(OCC)c1-c1ccc(O)cc1 [Example 15-d, Propane-1-sulphonic acid 4-(2,4-diamino-primidin-5-ylmethyl)-6-ethoxy-4′-hydroxy-biphenyl-2-yl ester] | 2 (≈ 4.36 µM) | 18 | 1 (≈ 2.18 µM) | 62 |  |  |  |  |  | 
6 | CCOc1cc(Cc2cnc(N)nc2N)cc(OS(=O)(=O)C2CC2)c1-c1ccc(N)c(C)c1 [Example 34-d, Cyclopropanesulphonic acid 4′-amino-4-(2,4-diamino-pyrimidin-5-ylmethyl)-6-ethoxy-3′-methyl-biphenyl-2-yl ester] | 2 (≈ 4.26 µM) | 2.4 | 1 (≈ 2.13 µM) | 140 |  |  |  |  |  | 
7 | CCOc1cc(Cc2cnc(N)nc2N)cc(OS(=O)(=O)N2CCCCC2)c1-c1ccc(O)cc1 [Example 20-b, Piperidine-1-sulphonic acid 4-(2,4-diamino-pyrimidin-5-ylmethyl)-6-ethoxy-4′-hydroxy-biphenyl-2-yl ester] | 1 (≈ 2 µM) | 1.8 | 0.5 (≈ 1 µM) | 140 |  |  |  |  |  | 
8 | CCOc1cc(Cc2cnc(N)nc2N)cc(OCC)c1-c1ccc(CN2CCCC2)c(F)c1 [Example 04-aa, 5-(2,6-Diethoxy-3′-fluoro-4′-pyrrolidin-1-ylmethyl-biphenyl-4-ylmethyl)-pyrimidine-2,4-diamine] | 8 (≈ 17.2 µM) | 330 | 8 (≈ 17.2 µM) | 1800 |  |  |  |  |  | 
9 | CCOc1cc(Cc2cnc(N)nc2N)cc(OS(=O)(=O)CC(C)(C)OC)c1-c1ccc(N)c(C)c1 [Example 39-b, (2-Methoxy-2-methyl-propane)-1-sulphonic acid 4′-amino-4-(2,4-diamino-pyrimidin-5-ylmethyl)-6-ethoxy-3′-methyl-biphenyl-2-yl ester] | 4 (≈ 7.76 µM) | 4.9 | 0.5 (≈ 0.97 µM) | 250 |  |  |  |  |  | 
10 | CCOc1cc(Cc2cnc(N)nc2N)cc(OS(=O)(=O)N(C)C)c1-c1ccc(CN2CCOCC2)cc1 [Example 65-, Dimethylsulphamic acid 4-(2,4-diamino-pyrimidin-5-ylmethyl)-6-ethoxy-4′-morpholin-4-ylmethyl-biphenyl-2-yl ester] | 2 (≈ 3.69 µM) | 24 | 2 (≈ 3.69 µM) | 160 |  |  |  |  |  | 
11 | CCOc1cc(Cc2cnc(N)nc2N)cc(OCC)c1-c1cccc(N)c1 [Example 2a, 5-(3′-Amino-2,6-diethoxy-biphenyl-4-ylmethyl)-pyrimidine-2,4-diamine] |  |  |  | 750 | 8 (≈ 21.1 µM) | 30 | 4 (≈ 10.5 µM) |  |  | 
12 | CCOc1cc(Cc2cnc(N)nc2N)cc(OCC)c1-c1ccc(CN2CCOCC2)c(F)c1 [Example 04-z] | 8 (≈ 16.6 µM) | 58 | 4 (≈ 8.31 µM) | 3800 |  |  |  |  |  | 
13 | CCOc1cc(Cc2cnc(N)nc2N)cc(OS(=O)(=O)C(C)C)c1-c1ccc2c(c1)OCO2 [Example 17-c, Propane-2-sulphonic acid 2-benzo[1.3]dioxol-5-yl-5-(2,4-diamino-pyrimidin-5-ylmethyl)-3-ethoxy-phenyl ester] | 2 (≈ 4.11 µM) | 33 | 2 (≈ 4.11 µM) | 180 |  |  |  |  |  | 
14 | CCOc1cc(Cc2cnc(N)nc2N)cc(OS(=O)(=O)CC(C)C)c1-c1ccc(N)c(C)c1 [Example 36-a, 2-Methyl-propane-1-sulphonic acid 4′-amino-4-(2,4-diamino-pyrimidin-5-ylmethyl)-6-ethoxy-3′-methyl-biphenyl-2-yl ester] | 2 (≈ 4.12 µM) | 3.3 | 0.25 (≈ 0.515 µM) | 32 |  |  |  |  |  | 
15 | 5-[2-Cyclopropylmethyl-6-ethoxy-4′-(2-morpholin-4-yl-ethoxy)-biphenyl-4-ylmethyl]-pyrimidine-2,4-diamine [Example 56-] |  | 32 |  |  |  |  |  | 8 | 2 | 800
16 | CCOc1cc(Cc2cnc(N)nc2N)cc(OCC)c1-c1ccc(N(C)C)cc1 [Example 02-v, 5-(4′-Dimethylamino-2,6-diethoxy-biphenyl-4-ylmethyl)-pyrimidine-2,4-diamine] | 8 (≈ 19.6 µM) | 110 | 4 (≈ 9.82 µM) | 10000 |  |  |  |  |  | 
17 | CCOc1cc(Cc2cnc(N)nc2N)cc(OCC)c1-c1ccc2[nH]ncc2c1 [Example 02-g, 5-[3,5-Diethoxy-4-(1H-indazol-5-yl)-benzyl]-pyrimidine-2,4-diamine] | 8 (≈ 19.8 µM) | 12 | 2 (≈ 4.94 µM) | 650 |  |  |  |  |  | 
18 | CCOc1cc(Cc2cnc(N)nc2N)cc(OS(=O)(=O)C2CCC2)c1-c1cc(N)cc(F)c1 [Example 40-e, Cyclobutane-sulphonic acid 3′-amino-4-(2,4-diamino-pyrimidin-5-ylmethyl)-6-ethoxy-5′-fluoro-biphenyl-2-yl ester] | 2 (≈ 4.1 µM) | 79 | 2 (≈ 4.1 µM) | 160 |  |  |  |  |  | 
19 | CCOc1cc(Cc2cnc(N)nc2N)cc(OCC)c1-c1ccc(N)cc1 [Example 04-c, 5-(4′-Amino-2,6-diethoxy-biphenyl-4-ylmethyl)-pyrimidine-2 4-diamine] | 8 (≈ 21.1 µM) | 40 | 4 (≈ 10.5 µM) | 700 |  |  |  |  |  | 
20 | CCOc1cc(Cc2cnc(N)nc2N)cc(OS(=O)(=O)CC(C)(C)C)c1-c1ccc(N)cc1 [Example 37-c, 2,2-Dimethyl-propane-1-sulphonic acid 4′-amino-4-(2,4-diamino-pyrimidin-5-ylmethyl)-6-ethoxy-biphenyl-2-yl ester] | 4 (≈ 8.24 µM) | 1.8 | 0.5 (≈ 1.03 µM) | 580 |  |  |  |  |  | 
21 | CCOc1cc(Cc2cnc(N)nc2N)cc(OS(=O)(=O)N(C)CC)c1-c1ccc(C)c(N)c1 [Example 31-b, N-Ethyl-N-methyl-sulphamic acid 3′-amino-4-(2,4-diamino-pyrimidin-5-ylmethyl)-6-ethoxy-4′-methyl-biphenyl-2-yl ester] | 2 (≈ 4.11 µM) | 4.4 | 1 (≈ 2.06 µM) | 130 |  |  |  |  |  | 
22 | CCOc1cc(Cc2cnc(N)nc2N)cc(OS(=O)(=O)N2CCOCC2)c1-c1cccc(N)c1 [Example 19-e, Morpholine-4-sulphonic acid 3′-amino-4-(2,4-diamino-pyrimidin-5-ylmethyl)-6-ethoxy-biphenyl-2-yl ester] | 2 (≈ 4 µM) | 3.9 | 1 (≈ 2 µM) | 38 |  |  |  |  |  | 
23 | CCOc1cc(Cc2cnc(N)nc2N)cc(OCC)c1-c1cc(N)cc(F)c1 [Example 04-t, 5-(5′-Amino-2,6-diethoxy-3′-fluoro-biphenyl-4-ylmethyl)-pyrimidine-2,4-diamine] | 8 (≈ 20.1 µM) | 31 | 2 (≈ 5.03 µM) | 1200 |  |  |  |  |  | 
24 | CCOc1cc(Cc2cnc(N)nc2N)cc(OS(=O)(=O)C2CCC2)c1-c1ccc(CN2CCOCC2)c(N)c1 [Example 40-d, Cyclobutane-sulphonic acid 3′-amino-4-(2,4-diamino-pyrimidin-5-ylmethyl)-6-ethoxy-4′-morpholinomethyl-biphenyl-2-yl ester] | 2 (≈ 3.52 µM) | 17 | 2 (≈ 3.52 µM) | 130 |  |  |  |  |  | 
25 | CCOc1cc(Cc2cnc(N)nc2N)cc(OS(=O)(=O)CC2CCCO2)c1-c1cccc(N)c1 (stereo not shown) [Example 42-a, Tetrahydrofuran-2-yl-methanesulphonic acid 3′-amino-4-(2,4-diamino-pyrimidin-5-ylmethyl)-6-ethoxy-biphenyl-2-yl ester] | 8 (≈ 16 µM) | 5.7 | 2 (≈ 4 µM) | 250 |  |  |  |  |  | 

— patent US6821980B1, “Substituted 5-benzyl-2,4-diaminopyrimidines” (Basilea Pharmaceutica AG, priority 1999, dated 2004)
